The results in this text go back to US12435061B2 (priority 2020, dated 2025).

The target in the assay is hTRPV3 (Homo sapiens (Human), UniProt Q8NET8). Kind of assay: Whole-cell patch clamp, hTRPV3 Phase 1 / Phase 2 currents. Type of assay: cell-based. An excerpt: Whole-cell patch clamp experiments permit the detection of currents through the TRPV3 channel in the cell line described above. A glass electrode is brought into contact with a single cell and the membrane is then ruptured, permitting control of the voltage of the cell membrane and measurement of currents flowing across the membrane using the amplifier attached to the electrode. A perfusion system permits control of the extracellular solution, including the addition of blockers and activators of the current. The current can be activated by heating this solution to 28° C. or warmer or by addition of 20 μM 2-APB to the solution.
TRPV3 cells were induced 20-48 hours, removed from growth plates, and replated at low density (to attain good single-cell physical separation) on glass coverslips for measurement. In some cases, cells were grown in low density overnight on glass coverslips. Patch clamp recordings were made in the whole-cell mode with a holding potential of −40 mV. Every 5 seconds, a voltage ramp was applied from −120 to +100 mV, 400 ms in duration. Currents elicited were quantified at −80 mV and +80 mV. […] External solution was Ringer's solution described above.
P1 refers to the Phase 1 current for human (h) TRPV3, and P2 refers to the Phase 2 current for human (h) TRPV3.
In Tables 3 and 4, Phase 1 refers to Phase 1 current for human (h) TRPV3 or rat (r) TRPV3, and Phase 2 refers to Phase 2 current for human (h) TRPV3 or rat (r) TRPV3. The hTRPV3 and rTRPV3 assays were performed as described herein. hERG refers to the inhibition the human ERG (hERG) channel. NaV1.5, refers to the pore forming aL-subunit of the voltage-dependent cardiac Na(+) channel and is an integral membrane protein involved in the initiation and conduction of action potentials. hTRPV3 HAMA IC50 refers to the IC50 of TRPV3 cells stably expressed in TRex-293 cells. Solubility Ringer refers to the compounds' solubility in Ringer's solution. LM T1/2 refers to liver microsome half-lives in either rat or human liver microsomes. FLIPR IC50 refers to the IC50 of the test compounds against recombinant hTRPV3 cells.
Background: The patch-clamp technique gives a direct electrical read-out from membranes.

[1] abbreviates: Phase 1 current, inward, whole-cell patch clamp, read-out: hTRPV3 Patch P1 Inwd.
[2] abbreviates: Phase 2 current, inward, whole-cell patch clamp, read-out: hTRPV3 Patch P2 Inwd.
Where [3] appears, read: Phase 1 current, human TRPV3, read-out: hTRPV3 (nM) Phase 1.
The mark [4] stands for this setting: Phase 1 current, read-out: hTRPV3 (nM) (Phase 1).
Setting [5] is: Phase 2 current, read-out: hTRPV3 (nM) (Phase 2).

Where “and” joins values, the source holds several entries; their conditions need not be identical. Equal entries are not always repeated. Structures can show the parent of a compound that is named as a salt. Where two headings read alike, the source gives them in different places. Where only a bound is given, the exact number is not on record here.

Chain of hTRPV3 (Q8NET8 whole entry, the tested form may be a part): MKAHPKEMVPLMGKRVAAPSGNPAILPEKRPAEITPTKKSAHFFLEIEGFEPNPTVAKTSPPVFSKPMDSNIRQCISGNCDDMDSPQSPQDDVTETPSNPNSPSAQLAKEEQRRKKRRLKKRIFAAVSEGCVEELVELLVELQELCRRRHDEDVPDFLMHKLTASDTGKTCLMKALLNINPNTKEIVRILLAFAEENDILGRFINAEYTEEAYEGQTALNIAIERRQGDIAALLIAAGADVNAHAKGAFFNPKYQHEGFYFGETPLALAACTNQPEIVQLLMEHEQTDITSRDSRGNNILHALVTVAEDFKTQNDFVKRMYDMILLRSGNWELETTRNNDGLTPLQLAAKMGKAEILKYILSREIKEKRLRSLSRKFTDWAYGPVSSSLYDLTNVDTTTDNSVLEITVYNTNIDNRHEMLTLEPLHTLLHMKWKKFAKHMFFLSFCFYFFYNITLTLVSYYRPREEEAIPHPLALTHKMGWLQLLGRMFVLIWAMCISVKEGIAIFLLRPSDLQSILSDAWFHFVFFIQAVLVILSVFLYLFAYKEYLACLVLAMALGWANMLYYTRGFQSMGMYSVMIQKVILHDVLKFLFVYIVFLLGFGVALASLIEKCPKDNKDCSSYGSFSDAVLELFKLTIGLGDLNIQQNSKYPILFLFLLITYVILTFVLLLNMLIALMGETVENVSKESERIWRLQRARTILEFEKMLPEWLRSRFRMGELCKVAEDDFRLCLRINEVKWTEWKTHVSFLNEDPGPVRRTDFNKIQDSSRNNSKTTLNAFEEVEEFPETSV

For the molecule “2-(1-o-tolylpyrrolidin-3-yloxy)-5-(trifluoromethyl)pyridine [Compound 1-1]”, the IC50 was above 1000 nM under setting [1] and above 1000 nM under setting [2].

As to “5-(2-isopropylphenoxy)-2-(1-(pyrazine-2-carbonyl)pyrrolidin-3-yl)benzamide [Compound 2-103]”, the IC50 was around 5250 nM under setting [3] and above 1000 nM under setting [1].

Turning to `Cc1cccc(C(=O)c2ccc(C3CCN(C(=O)c4ncccc4Cl)C3)c(CO)c2)c1` (single isomer, unassigned) [Compound 2-3], the IC50 under setting [1] lay within 10 to 100 nM.

Regarding `Cc1cccc(C(O)c2ccc(C3CCN(C(=O)c4ncccc4Cl)C3)c(CO)c2)c1` (single isomer, unassigned) [Compound 2-8], the IC50 is above 3200 nM under setting [3] and above 1000 nM under setting [1]. For the molecule `CC(C)(C)NS(=O)(=O)c1cc(-c2ccccc2)ccc1N1CCC(Oc2ccc(C(F)(F)F)cn2)C1` (stereo in doubt) [Compound 1-96, (S)—N-tert-butyl-4-(3-(5-(trifluoromethyl)pyridin-2-yloxy)pyrrolidin-1-yl)biphenyl-3-sulfonamide], the IC50 is, setting by setting: under setting [1], above 1000 nM; under setting [4], above 3200 nM; under setting [2], above 1000 nM; under setting [5], above 3200 nM. For `NC(=O)c1cc(-c2ccccc2)ccc1N1CC[C@H](Nc2ccc(C(F)(F)F)cn2)C1` (stereo in doubt) [Compound 1-375], the IC50 reads like this: under setting [4], > 1000 nM and ~5500 nM; under setting [5], > 1000 nM and ~2850 nM. On to `N#Cc1ccccc1N1CCC(Oc2ccc(C(F)(F)F)cn2)C1` (stereo not drawn) [Compound 1-5], for which the IC50 by setting is: under setting [1], above 1000 nM; under setting [2], above 1000 nM. With `N#Cc1ccccc1N1CC[C@@H](Oc2ccc(C(F)(F)F)cn2)C1` [Compound 1-9, (R)-2-(3-(5-(trifluoromethyl)pyridin-2-yloxy)pyrrolidin-1-yl)benzonitrile], the IC50 under setting [1] is above 1000 nM. Still for that read-out and setting: with `N#Cc1ccccc1N1CC[C@H](Oc2ccc(C(F)(F)F)cn2)C1` [Compound 1-11, (S)-2-(3-(5-(trifluoromethyl)pyridin-2-yloxy)pyrrolidin-1-yl)benzonitrile] the figure was above 1000 nM.

Consider `NCc1ccccc1N1CC[C@H](Oc2ccc(C(F)(F)F)cn2)C1` [Compound 1-13, (S)-(2-(3-(5-(trifluoromethyl)pyridin-2-yloxy)pyrrolidin-1-yl)phenyl)methanamine HCl salt], for which the IC50 is above 1000 nM under setting [1] and above 1000 nM under setting [2]. As for `CC(C)Oc1ccccc1N1CC[C@H](Oc2ccc(C(F)(F)F)cn2)C1` [Compound 1-15, (S)-2-(1-(2-isopropoxyphenyl)pyrrolidin-3-yloxy)-5-(trifluoromethyl)pyridine], the IC50 is above 1000 nM under setting [1] and above 1000 nM under setting [2]. In the case of `NCc1ccccc1N1CC[C@@H](Oc2ccc(C(F)(F)F)cn2)C1` [Compound 1-20, (R)-(2-(3-(5-(trifluoromethyl)pyridin-2-yloxy)pyrrolidin-1-yl)phenyl)methanamine], the IC50 is above 1000 nM under setting [1] and above 1000 nM under setting [2]. For `N#Cc1ccc(N2CC[C@H](Oc3ccc(C(F)(F)F)cn3)C2)c(C(N)=O)c1` [Compound 1-23, (S)-5-cyano-2-(3-(5-(trifluoromethyl)pyridin-2-yloxy)pyrrolidin-1-yl)benzamide], the IC50 under setting [1] is above 1000 nM.

Consider `O=C(O)c1ccccc1N1CC[C@H](Oc2ccc(C(F)(F)F)cn2)C1` [Compound 1-24, (S)-2-(3-(5-(trifluoromethyl)pyridin-2-yloxy)pyrrolidin-1-yl)benzoic acid], for which, under setting [1], the IC50 is above 1000 nM. The same measure, in the same setting: with `FC(F)(F)c1ccc(O[C@H]2CCN(c3ccccc3OC3CCCC3)C2)nc1` [Compound 1-25, (S)-2-(1-(2-(cyclopentyloxy)phenyl)pyrrolidin-3-yloxy)-5-(trifluoromethyl)pyridine] the figure was above 1000 nM; with `FC(F)(F)c1ccc(O[C@H]2CCN(c3ccccc3OCc3ccccc3)C2)nc1` [Compound 1-26, (S)-2-(1-(2-(benzyloxy)phenyl)pyrrolidin-3-yloxy)-5-(trifluoromethyl)pyridine], above 1000 nM.
